Measurements published in patent US8883782B2, “Spiro-tetracyclic ring compounds as beta-secretase modulators and methods of use” (Amgen Inc., priority 2010, dated 2014).
Where two headings read alike, the source gives them in different places.

What was measured:
[1] = target: Beta Secretase enzyme (BACE) (Homo sapiens, UniProt P56817); experiment: In vitro enzymatic BACE FRET (fluorescence resonance energy transfer) assay; type: biochemical; conditions: average IC50, enzyme assay; read-out: BACE 1 FRET assay
Outline: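 Fluorescence read after Tris quench to neutral pH. Reaction: 50 nM fluorophore/quencher peptide substrate, 1 h, in 0.05 M acetate pH 4.2, 10% DMSO final, 100 uM genapol.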

[2] = tested on: Aβ40 in conditioned medium of cells stably expressing Amyloid Precursor Protein (APP); experiment: In vitro BACE cell-based assay (Aβ40 in conditioned medium, sandwich ELISA); conditions: Homo sapiens, read-out: HEK cell assay
Outline: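 The sandwich ELISA pairs pAb40 capture (3 h, 4 °C) with 6E10 detection (2 h, 4 °C) and a streptavidin-europium TRF read-out. Supernatants come from APP-expressing cells grown in 10% FBS DMEM.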

[3] = HEK293, average IC50, HEK cells

Sequence of Beta Secretase enzyme (BACE) (P56817 46-501, species assumed): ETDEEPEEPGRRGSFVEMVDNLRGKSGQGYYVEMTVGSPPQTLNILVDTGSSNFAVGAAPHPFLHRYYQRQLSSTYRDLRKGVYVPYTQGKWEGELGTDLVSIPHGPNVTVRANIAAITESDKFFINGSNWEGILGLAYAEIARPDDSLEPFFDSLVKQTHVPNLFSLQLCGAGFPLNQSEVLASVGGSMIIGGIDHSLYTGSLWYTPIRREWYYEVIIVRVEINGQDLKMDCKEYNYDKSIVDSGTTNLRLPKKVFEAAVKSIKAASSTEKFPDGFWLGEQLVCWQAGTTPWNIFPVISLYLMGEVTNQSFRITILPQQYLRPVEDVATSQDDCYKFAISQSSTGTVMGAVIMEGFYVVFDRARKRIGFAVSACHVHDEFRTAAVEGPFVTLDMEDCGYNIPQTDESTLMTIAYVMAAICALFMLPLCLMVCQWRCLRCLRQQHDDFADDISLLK

Work on `NC1=N[C@@]2(CO1)c1cc(-c3cccnc3F)ccc1Oc1cc(F)c(C3CCOCC3)cc12` [Example 334, (4S)-3′-fluoro-7′-(2-fluoro-3-pyridinyl)-2′-(tetrahydro-2H-pyran-4-yl)spiro[1,3-oxazole-4,9′-xanthen]-2-amine] yielded an IC50 [1] of 18.9 nM and an IC50 ([2]; HEK293, average IC50) of 67.6 nM.
With `COC(C)(C)COc1cnc2c(c1)[C@]1(COC(N)=N1)c1cc(-c3cccc(F)c3F)ccc1O2` [Example 315, (5S)-7-(2,3-difluorophenyl)-3-(2-methoxy-2-methylpropoxy)spiro[chromeno[2,3-b]pyridine-5,4′-[1,3]oxazol]-2′-amine] the IC50 [1] was 5.2 nM and the IC50 ([2]; HEK293, average IC50) was 31.7 nM.
Work on `CC1(C#Cc2ccc3c(c2)[C@@]2(COC(N)=N2)c2cc(C4=CCOCC4)ncc2O3)COC1` [Example 160, (5S)-3-(3,6-dihydro-2H-pyran-4-yl)-7-((3-methyl-3-oxetanyl)ethynyl)spiro[chromeno[2,3-c]pyridine-5,4′-[1,3]oxazol]-2′-amine] yielded an IC50 [1] of 22 nM and an IC50 ([2]; HEK293, average IC50) of 91 nM.
With `NC1=N[C@@]2(CO1)c1cc(-c3c(F)ccnc3F)ccc1Oc1cnc([C@@H]3CCCCO3)cc12` [Example 915, (5S)-7-(2,4-difluoro-3-pyridinyl)-3-((2S)-tetrahydro-2H-pyran-2-yl)spiro[chromeno[2,3-c]pyridine-5,4′-[1,3]oxazol]-2′-amine] the IC50 [1] was 2.5 nM and the IC50 [2, 3] was 23 nM.
`Cn1cc(-c2cnc3c(c2)[C@]2(COC(N)=N2)c2c(ccc(-c4cccnc4F)c2F)O3)cn1` [Example 356, (5R)-6-fluoro-7-(2-fluoro-3-pyridinyl)-3-(1-methyl-1H-pyrazol-4-yl)spiro[chromeno[2,3-b]pyridine-5,4′-[1,3]oxazol]-2′-amine] gave an IC50 [1] of 0.9 nM and an IC50 ([2]; HEK293, average IC50) of 13.9 nM.
Molecule `NC1=N[C@@]2(CO1)c1cc(-c3cccnc3F)ccc1Oc1c2cc(C2=CCOCC2)nc1F` [Example 130, (S)-3-(3,6-dihydro-2H-pyran-4-yl)-1-fluoro-7-(2-fluoropyridin-3-yl)-5′H-spiro[chromeno[2,3-c]pyridine-5,4′-oxazol]-2′-amine] has an IC50 [1] of 0.4 nM and an IC50 [2, 3] of 2.1 nM.
`NC1=N[C@@]2(CO1)c1cc(-c3ccccc3)ccc1Oc1cnc(C3CCOCC3)cc12` [Example 238, (5S)-7-phenyl-3-(tetrahydro-2H-pyran-4-yl)spiro[chromeno[2,3-c]pyridine-5,4′-[1,3]oxazol]-2′-amine] was tested, and the IC50 [1] was 40.7 nM and the IC50 ([2]; HEK293, average IC50) was 164 nM.
Work on `NC1=N[C@]2(CO1)c1cc(C3=CCOCC3)ccc1Oc1ccc(-c3cnccn3)cc12` [Example 192, (4R)-2′-(3,6-dihydro-2H-pyran-4-yl)-7′-(2-pyrazinyl)spiro[1,3-oxazole-4,9′-xanthen]-2-amine] yielded an IC50 [1] of 13.1 nM and an IC50 ([2]; HEK293, average IC50) of 35 nM.
`CC1(C#Cc2cc3c(cn2)Oc2ccc(-c4cccnc4F)cc2[C@@]32CSC(N)=N2)COC1` [Example 995, (5S)-7-(2-fluoro-3-pyridinyl)-3-((3-methyl-3-oxetanyl)ethynyl)spiro[chromeno[2,3-c]pyridine-5,4′-[1,3]thiazol]-2′-amine] showed an IC50 [1] of 0.8 nM and an IC50 ([2]; HEK293, average IC50) of 15 nM.
`CC1(COc2ccc3c(c2)[C@@]2(COC(N)=N2)c2cc(C4=CCOCC4)cc(F)c2O3)COC1` [Example 438, (4S)-2′-(3,6-dihydro-2H-pyran-4-yl)-4′-fluoro-7′-((3-methyl-3-oxetanyl)methoxy)spiro[1,3-oxazole-4,9′-xanthen]-2-amine] gave an IC50 [1] of 9 nM and an IC50 [2, 3] of 34.6 nM.
`NC1=N[C@]2(CO1)c1cc(-c3cccnc3F)ccc1Oc1nc(F)ccc12` [Example 485, (5R)-2-fluoro-7-(2-fluoro-3-pyridinyl)spiro[chromeno[2,3-b]pyridine-5,4′-[1,3]oxazol]-2′-amine] showed an IC50 [1] of 175 nM and an IC50 [2, 3] of 852 nM.
`CC#Cc1cncc(-c2ccc3c(c2)[C@]2(COC(N)=N2)c2cc(C4CCOCC4)nc(F)c2O3)c1` [Example 754, (5R)-1-fluoro-7-(5-(1-propyn-1-yl)-3-pyridinyl)-3-(tetrahydro-2H-pyran-4-yl)spiro[chromeno[2,3-c]pyridine-5,4′-[1,3]oxazol]-2′-amine] gave an IC50 [1] of 156 nM and an IC50 ([2]; HEK293, average IC50) of 691 nM.
